Assay results as given in US20050227933A1 (priority 2001, published 2005).

Experiments:
[1] = tested on: bacterial cells expressing an adenine DNA methyltransferase; type: cell-based, Caulobacter
Brucella abortus = type: cell-based
dam Methylase (E. coli) = dam Methylase (E. coli) (Escherichia coli, UniProt P0AEE8); type: biochemical; settings: 100 µM
[2] = target: dcm Methyltransferase (Hhal) (Haemophilus parahaemolyticus, UniProt P05102); type: biochemical, Hemophilus hemolyticus; settings: at 500 μM
[3] = tested on: Agrobacterium tumefaciens; type: cell-based; settings: read-out: IC50 cell growth inhibition
Helicobacter pylori = type: cell-based; settings: read-out: IC50 cell growth inhibition
[4] = tested on: Caulobacter crescentus (CB15N); type: cell-based; settings: 30° C., growth monitored at 630 nm up to 22 hours; read-out: IC50 (μM) Caulobacter crescentus Cell Growth
Brucella abortus CcrM = type: biochemical
[5] = tested on: Bacillus subtilis (ATCC #33234); type: cell-based; settings: 37° C., growth monitored up to 7.5 hours; read-out: IC50 (μM) Bacillus Subtilis Cell Growth
Caulobacter cresentus = test: microbe, parasite or virus in culture; type: cell-based; settings: read-out: IC50 cell growth inhibition
Bacillus subtilis = test: microbe, parasite or virus in culture; type: cell-based; settings: read-out: IC50 cell growth inhibition
[6] = tested on: adenine DNA methyltransferase; type: biochemical

Sequence of dam Methylase (E. coli) (P0AEE8 whole entry): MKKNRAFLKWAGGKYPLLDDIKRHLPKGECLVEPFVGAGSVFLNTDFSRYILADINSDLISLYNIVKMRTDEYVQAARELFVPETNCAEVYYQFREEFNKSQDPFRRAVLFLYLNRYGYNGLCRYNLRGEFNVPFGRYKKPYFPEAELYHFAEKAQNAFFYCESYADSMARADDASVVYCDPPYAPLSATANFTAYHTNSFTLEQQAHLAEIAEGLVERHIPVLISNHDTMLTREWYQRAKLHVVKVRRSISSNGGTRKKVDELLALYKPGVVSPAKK
Sequence of dcm Methyltransferase (Hhal) (P05102 whole entry): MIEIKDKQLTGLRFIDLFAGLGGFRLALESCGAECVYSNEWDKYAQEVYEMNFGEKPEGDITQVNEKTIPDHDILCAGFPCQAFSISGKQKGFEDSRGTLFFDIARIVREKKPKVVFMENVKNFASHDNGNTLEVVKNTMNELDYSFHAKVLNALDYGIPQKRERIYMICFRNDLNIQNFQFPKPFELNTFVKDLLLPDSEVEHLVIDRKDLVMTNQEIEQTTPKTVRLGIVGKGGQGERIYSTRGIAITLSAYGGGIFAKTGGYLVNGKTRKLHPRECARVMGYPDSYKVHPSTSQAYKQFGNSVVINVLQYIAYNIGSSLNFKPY

Molecule | IC50 [4] [µM] | % reaction Brucella abortus CcrM Activity (Brucella abortus CcrM) [%] | IC50 [5] [µM] | further results
c1ccc(B(OCCNc2ncnc3[nH]cnc23)c2ccccc2)cc1 |  |  |  | concentration found to inhibit cell growth [1]: < 50 µM
6-N-(diphenylborinic ester)-ethyl-9-(2-(2-(2-hydroxyethoxy)ethoxy)ethyl)-adenine [Compound 3d] |  |  |  | effect on cell growth (Brucella abortus): Cell growth inhibited from start; inhibition of dam Methylase (dam Methylase (E. coli)): Complete inhibition; inhibition of dcm Methyltransferase [2]: No inhibition at all
6-N-(diphenylborinic ester)-ethyl-9-(2-(4-morpholinyl)-ethyl)-adenine [Compound 3b] |  |  |  | effect on cell growth (Brucella abortus): Complete cell death after 12 hours; IC50 [3]: 25 µM; inhibition of dam Methylase (dam Methylase (E. coli)): Complete inhibition; inhibition of dcm Methyltransferase [2]: No inhibition at all
6-N-(diphenylborinic ester)-ethyl-9-(3-(N-phthaloyl)-aminopropyl)-adenine [Compound 3c] |  |  |  | effect on cell growth (Brucella abortus): Cell growth inhibited from start; IC50 [3]: 25 µM; inhibition of dam Methylase (dam Methylase (E. coli)): Complete inhibition; inhibition of dcm Methyltransferase [2]: No inhibition at all
6-N-(diphenylborinic ester)-ethyl-9-(ethyl-2-acrylate)-methyl-adenine [Compound 3e] |  |  |  | effect on cell growth (Brucella abortus): Cell growth inhibited from start; IC50 (Helicobacter pylori): 25 µM; inhibition of dam Methylase (dam Methylase (E. coli)): Complete inhibition; inhibition of dcm Methyltransferase [2]: No inhibition at all
6-N-(diphenylborinic ester)-ethyl-adenine [Compound 3a] |  |  |  | effect on cell growth (Brucella abortus): Almost complete cell death after 12 hours; IC50 [3]: > 100 µM; inhibition of dam Methylase (dam Methylase (E. coli)): Complete inhibition; inhibition of dcm Methyltransferase [2]: No inhibition at all
c1ccc(B(Oc2cccc3cccnc23)c2ccccc2)cc1 [(11i), diphenylborinic acid 8-hydroxyquiniline ester] | > 100 |  |  | 
Fc1ccc(B(Oc2cccc3cccnc23)c2ccc(F)cc2)cc1 [(11ii), Di-(4-fluorophenyl)borinic acid 8-hydroxyguinoline ester] | 23 | 61 |  | 
Clc1ccc(B(Oc2cccc3cccnc23)c2ccc(Cl)cc2)cc1 [(11iii), Di-(4-chlorophenyl)borinic acid 8-hydroxyquinoline ester] | 16 | 61 |  | 
Clc1cccc(B(Oc2cccc3cccnc23)c2cccc(Cl)c2)c1 [(11iv), Di-(3-chlorophenyl)borinic acid 8-hydroxyguinoline ester] | 10 |  | < 10 | 
Fc1cc(Cl)ccc1B(Oc1cccc2cccnc12)c1ccc(Cl)cc1F [(11v), Di-(4-chloro-2-fluorophenyl)borinic acid 8-hydroxyquinoline ester] | 26 |  | < 10 | 
c1cnc2c(OB(c3ccc4c(c3)OCO4)c3ccc4c(c3)OCO4)cccc2c1 [(11vi), Di-(3,4-methylenedioxyphenyl)borinic acid 8-hydroxyquinoline ester] | 32 | 42 | 28 | 
COc1ccc(B(Oc2cccc3cccnc23)c2ccc(OC)cc2)cc1 [(11vii), Di-(4-methoxyphenyl)borinic acid 8-hydroxyquinoline ester] | 24 |  | 20 | 
c1csc(B(Oc2cccc3cccnc23)c2cccs2)c1 [(11viii), Di-(2-thienyl)borinic acid 8-hydroxyguinoline ester] | > 100 | 74 | 28 | 
Cc1ccc2cccc(OB(c3ccc(F)cc3)c3ccc(F)cc3)c2n1 [(12ii), Di-(p-fluorophenyl)borinic acid 8-hydroxyquinaldine ester] | 56 | 17 | > 100 | 
Cc1ccc2cccc(OB(c3ccc(Cl)cc3)c3ccc(Cl)cc3)c2n1 [(12iii), Di-(p-chlorophenyl)borinic acid 8-hydroxyguinaldine ester] | 5 | 40 | 24 | 
COc1ccc(B(Oc2cccc3ccc(C)nc23)c2ccc(OC)cc2)cc1 [(12vii), Di-(4-methoxyphenyl)borinic acid 8-hydroxyquinaldine ester] | 24 | 56 | > 100 | 

Molecule | IC50 [4] [µM] | % reaction Brucella abortus CcrM Activity (Brucella abortus CcrM) [%] | IC50 [5] [µM] | further results
Fc1ccc(B(Oc2ccc(Cl)c3cccnc23)c2ccc(F)cc2)cc1 [(13ii), Di-(p-fluorophenyl)borinic acid 5-chloro-8-hydroxyquinaline ester] | 7 | 55 | 27 | 
Clc1ccc(B(Oc2ccc(Cl)c3cccnc23)c2ccc(Cl)cc2)cc1 [(13iii), Di-(p-chlorophenyl)borinic acid 5-chloro-8-hydroxyquinaline ester] | 6 | 81 | < 10 | 
Clc1ccc(OB(c2ccc3c(c2)OCO3)c2ccc3c(c2)OCO3)c2ncccc12 [(13vi), Di-(3,4-methylenedioxyphenyl)borinic acid 5-chloro-8-hydroxyquinoline ester] | 7 |  | > 100 | 
COc1ccc(B(Oc2ccc(Cl)c3cccnc23)c2ccc(OC)cc2)cc1 [(13vii), Di-(4-methoxyphenyl)borinic acid 5-chloro-8-hydroxyquinoline ester] | 7 |  | 36 | 
O=[N+]([O-])c1ccc(OB(c2ccc3c(c2)OCO3)c2ccc3c(c2)OCO3)c2ncccc12 [(14vi), Di-(3,4-methylenedioxyphenyl)borinic acid 8-hydroxy-5-nitroquinoline ester] | 7 | 21 | > 100 | 
c1ccc(B(OCc2ccccn2)c2ccccc2)cc1 [(16i), Diphenylborinic acid pyridine-2-methanol] | > 100 | 93 | > 100 | 
NCCOB(c1ccc(F)cc1)c1ccc(F)cc1 [(19ii), Di-(4-fluorophenyl)borinic acid ethanolamine ester] | 85 | 8 |  | 
NCCOB(c1ccc(Cl)cc1)c1ccc(Cl)cc1 [(19iii), Di-(4-chlorophenyl)borinic acid ethanolamine ester] | 17 |  |  | 
Fc1ccc([B-]2(c3ccc(F)cc3)Oc3cccc4ccc[n+]2c34)cc1 [Compound (1), di-(p-fluorophenyl)borinic acid 8-hydroxyquiniline ester] |  |  |  | IC50 (Caulobacter cresentus): 23 µM; IC50 (Bacillus subtilis): 1.4 µM
Clc1ccc([B-]2(c3ccc(Cl)cc3)Oc3cccc4ccc[n+]2c34)cc1 [Compound (2), di-(p-chlorophenyl)borinic acid 8-hydroxyquiniline ester] |  |  |  | IC50 (Caulobacter cresentus): 1.6 µM; IC50 (Bacillus subtilis): 7 µM
c1ccc([B-]2(c3ccccc3)Oc3cccc4ccc[n+]2c34)cc1 [Compound (3), diphenylborinic acid 8-hydroxyquiniline ester] |  |  |  | IC50 (Caulobacter cresentus): > 100 µM
Fc1ccc([B-]2(c3ccc(F)cc3)[NH2+]CCO2)cc1 [Compound (4), di-(p-fluorophenyl)borinic acid ethanolamine ester] |  |  |  | IC50 (Caulobacter cresentus): 8.5 µM; IC50 (Bacillus subtilis): 3.4 µM
Clc1ccc([B-]2(c3ccc(Cl)cc3)[NH2+]CCO2)cc1 [Compound (5), di-(p-chlorophenyl)borinic acid ethanolamine ester] |  |  |  | IC50 (Caulobacter cresentus): 1.7 µM; IC50 (Bacillus subtilis): 3.2 µM
NCCNc1ncnc2[nH]cnc12 [compound (8)] |  |  |  | inhibitory activity [6]: relatively low (mM range)
Diphenylborinic acid 2-amino-1-phenylpropanol [(17i)] | > 100 | 114 | > 100 | 
Diphenylborinic acid (S)-(+)-pyrrolidine-2-methanol [(18i)] | > 100 | 81 | > 100 | 
